# From patent publication US7368469B2, “Use of inhibitors of the renin-angiotensin system in the prevention of cardiovascular events” (Sanofi-Aventis Deutschland GmbH, priority 1999, dated 2008)
# Read-outs that look alike come from different tables or passages of the source.
# What was measured:
# [1] = test system: high risk patients without known low EF or HF; assay type: in vivo; details: for Blood pressure: active group
# Procedure: A large-scale clinical trial (HOPE (Heart Outcomes Prevention Evaluation) Study) was designed to examine the effect of the ACE inhibitor ramipril versus placebo in reducing cardiovascular events. 9,297 high risk patients (≧55 yrs with evidence of vascular disease or diabetes plus one additional risk factor), without known low EF or HF were randomized to receive Ramipril (2.5 mg to 10 mg/day) or matching placebo for a mean duration of 5 years. The primary outcome was the first occurrence of the composite of cardiovascular (CV) mortality, myocardial infarction or stroke. The study was stopped at 4.5 years by the independent Data and Safety Monitoring Board because of convincing evidence of benefit. 646 (13.9%) patients allocated to Ramipril and 816 (17.5%) placebo patients experienced a primary outcome (Relative risk, RR of 0.78, 95% confidence interval of 0.70-0.86; Portable=0.000002). There were clear and significant reductions separately in CV deaths (6.0% v. 8.0%, RR of 0.75, Portable=0.0002), myocardial infarction (9.8% v.12.0%, RR of 0.68, Portable=0.0002). […] Other outcomes included worsening or new angina, or new heart failure (irrespective of hospitalization).
# In a double blind, 2×2 factorial, randomized trial, HOPE evaluated Ramipril or vitamin E in 9541 patients. A substudy of 244 patients tested a low dose (2.5 mg/day) versus the full dose (10 mg/day) of Ramipril. The primary outcome in these 244 patients is reported as a footnote to Table 3. Therefore the main results report is on 9,297 patients randomized to receive 10 mg Ramipril or equivalent placebo. The effects of vitamin E are reported separately. The design of HOPE has been published (Can J Cardiology 1996; 12(2); 127-137), a brief summary follows below:
# Men and women were eligible if aged 55 years and older, with prior coronary artery disease, stroke, peripheral vascular disease or diabetes plus at least one other risk factor (current or previous hypertension, elevated total cholesterol, low HDL cholesterol, current cigarette smoking, known microalbuminuria or previous vascular disease). Patents who had HF, were known to have low EF, those on ACE-I or vitamin E, those with uncontrolled hypertension or overt nephropathy, or recent MI (<4 weeks) were excluded. In this large, simple trial it was impractical to measure left ventricular function in all patients (none of whom had heart failure or were considered to need an ACE-I). Instead, echocardiograms were done in all patients (n=496) from 3 centres who entered a substudy. […] Additionally, an audit of charts identified that in 5285 patients a prerandomization and evaluation of ventricular function had been conducted. Only 409 (7.7%) were documented to have low EF and none had heart failure prior to randomization. A separate analysis of those documented to have a preserved EF (n=4876) is provided. After obtaining written informed consent, all eligible patients entered a run in phase where they received 2.5 mg Ramipril OD for 7-10 days followed by matching placebo for 10-14 days. Patients who were non compliant (<80% of pills taken), who experienced side effects, developed abnormal creatinine or potassium levels or those who withdrew consent were excluded. 9,541 were included; 9,297 were randomized to receive Ramipril at 10 mg/day or matching placebo, with 244 randomized to low dose (2.5 mg/day) of Ramipril.
# At randomization, patients were allocated to receive Ramipril at 2.5 mg OD for one week, then 5 mg OD for another 3 weeks, followed by 10 mg once daily, or matching placebo. Additionally, all patients were randomized to vitamin E 400 IU/day or matching placebo. Follow-up visits occurred at 1 month, 6 months and then at 6 month intervals. At each visit, data were collected on events, compliance, and side effects leading to alteration of study medications. All primary and secondary events were documented on additional forms and were centrally adjudicated using standardized definitions. […]
# [2] = test system: high risk patients without known low EF or HF; assay type: in vivo; details: subgroup with documented preserved ventricular function (n=4676), vs placebo
# [3] = test system: patients randomized to captopril compared to a diuretic or beta blocker; details: cited from earlier work
# [4] = Ramipril 10 mg/day group, n=4645
# [5] = Ramipril group, diabetic nephropathy, renal dialysis, laser therapy
# [6] = Ramipril group, irrespective of hospitalization
# [7] = both, human, in vivo, 4.5 years
smiles,measurement,setting,value
"CCOC(=O)[C@H](CCc1ccccc1)N[C@@H](C)C(=O)N1[C@H](C(=O)O)C[C@@H]2CCC[C@@H]21 [Ramipril, ramipril]",Relative risk reduction (conditional RRR),[1]; 2nd year,22%
same,Relative risk reduction (conditional RRR),[1]; 3rd year,26%
same,Relative risk reduction (conditional RRR),[1]; 4th year,27%
same,Relative risk reduction in the primary outcome at interim analysis,"[1]; DSMB interim look, Mar. 22, 1999, 95% CI 12% to 28%",20%
same,"Primary outcome CV death, MI, stroke: % of patients",[1]; [4],13.9%
same,"Primary outcome CV death, MI, stroke: number of patients",[1]; [4],646
same,New diagnosis of diabetes: % of patients,[1]; Ramipril group,3.8%
same,New diagnosis of diabetes: number of patients,[1]; Ramipril group,108
same,Stopping blinded medication for hypotension/dizziness: %,[1]; Ramipril group,1.8%
same,Stopping blinded medication for hypotension/dizziness: number,[1]; Ramipril group,82
same,Primary outcome: number of patients at 2 years,"[1]; Ramipril group, at 2 years",323
same,Cardiac arrests: % of patients,"[1]; Ramipril group, n=4645",0.8%
same,Cardiac arrests: number of patients,"[1]; Ramipril group, n=4645",37
same,Heart failure hospitalizations: % of patients,"[1]; Ramipril group, n=4645",3.2%
same,Heart failure hospitalizations: number of patients,"[1]; Ramipril group, n=4645",150
same,MI: % of patients,"[1]; Ramipril group, n=4645",9.8%
same,MI: number of patients,"[1]; Ramipril group, n=4645",453
same,Revascularization: % of patients,"[1]; Ramipril group, n=4645",16.0%
same,Revascularization: number of patients,"[1]; Ramipril group, n=4645",742
same,Strokes: % of patients,"[1]; Ramipril group, n=4645",3.3%
same,Strokes: number of patients,"[1]; Ramipril group, n=4645",155
same,Total mortality: % of patients,"[1]; Ramipril group, n=4645",10.3%
same,Total mortality: number of patients,"[1]; Ramipril group, n=4645",476
same,UA with ECG changes: % of patients,"[1]; Ramipril group, n=4645",3.4%
same,UA with ECG changes: number of patients,"[1]; Ramipril group, n=4645",179
same,Unstable angina hospitalization: % of patients,"[1]; Ramipril group, n=4645",12.1%
same,Unstable angina hospitalization: number of patients,"[1]; Ramipril group, n=4645",564
same,Primary outcome: number of patients within 1 year after randomization,"[1]; Ramipril group, within 1 year",167
same,"Permanently discontinuing blinded medication, % of alive","[1]; Ramipril group, % of alive",29.1%
same,"Stopping blinded medication at any time, % of alive","[1]; Ramipril group, % of alive",33.0%
same,Diabetic complications: % of patients,[1]; [5],6.4%
same,Diabetic complications: number of patients,[1]; [5],298
same,All heart failure (new heart failure): number of patients,[1]; [6],343
same,All heart failure: % of patients,[1]; [6],7.4%
same,Worsening angina: % of patients,[1]; [6],23.8%
same,Worsening angina: number of patients,[1]; [6],1104
same,"Difference in BP reduction, diastolic",[1]; Ramipril vs placebo,−2 mmHg
same,"Difference in BP reduction, systolic",[1]; Ramipril vs placebo,−3 mmHg
same,Impact on hospitalizations for unstable angina,[1]; Ramipril vs placebo,no impact
same,Increase in patients stopping medication for dizziness/hypotension,"[1]; Ramipril vs placebo, nonsignificant",0.3%
same,Blood pressure,"[1]; at 1 month, 139/79 at entry",133/76
same,Blood pressure,[1]; at 2 years,135/76
same,Blood pressure,[1]; at the end of the study,136/76
same,Excess of patients stopping for cough,[1]; [7],5%
same,No. permanently discontinuing blinded medication,[1]; [7],1207
same,No. stopping blinded medication at any time,[1]; [7],1370
same,Stopping blinded medication for angioedema: %,[1]; [7],0.3%
same,Stopping blinded medication for angioedema: number,[1]; [7],16
same,Stopping blinded medication for cough: %,[1]; [7],7.2%
same,Stopping blinded medication for cough: number,[1]; [7],335
same,"Composite outcome of CV death, MI, stroke, heart failure, revascularization and diabetic complications",[1]; diabetic patients with no clinical manifestations of CVD (1100),significantly reduced
same,Relative risk reduction,[1]; first year of the trial,about 11%
same,Primary outcome relative risk conditioned on survival up to the prior year,[1]; fourth year,0.73
same,Tolerability,[1]; in the trial,generally well tolerated
same,Primary outcome relative risk conditioned on survival up to the prior year,[1]; second year,0.78
same,Primary composite outcome relative risk (95% CI),"[1]; subgroup Age 65+, 5128 patients",0.75 (0.66-0.85)
same,Primary composite outcome relative risk (95% CI),"[1]; subgroup Age <65, 4169 patients",0.82 (0.70-0.98)
same,Primary composite outcome relative risk (95% CI),"[1]; subgroup CAD+, 7475 patients",0.80 (0.71-0.89)
same,Primary composite outcome relative risk (95% CI),"[1]; subgroup CAD−, 1822 patients",0.71 (0.54-0.93)
same,Primary composite outcome relative risk (95% CI),"[1]; subgroup CVD+, 8160 patients, Ramipril vs placebo",078 (0.71-0.87)
same,Primary composite outcome relative risk (95% CI),"[1]; subgroup CVD−, 1137 patients",0.81 (0.56-1.20)
same,Primary composite outcome relative risk (95% CI),"[1]; subgroup Cerebro VD+, 1013 patients",0.73 (0.56-0.95)
same,Primary composite outcome relative risk (95% CI),"[1]; subgroup Cerebro VD−, 8284 patients",0.79 (0.71-0.88)
same,Primary composite outcome relative risk (95% CI),"[1]; subgroup Diabetes+, 3578 patients",0.76 (0.65-0.89)
same,Primary composite outcome relative risk (95% CI),"[1]; subgroup Diabetes−, 5719 patients",0.79 (0.69-0.91)
same,Primary composite outcome relative risk (95% CI),"[1]; subgroup Female, 2480 patients",0.76 (0.61-0.95)
same,Primary composite outcome relative risk (95% CI),"[1]; subgroup Hypertension+, 4355 patients",0.75 (0.65-0.87)
same,Primary composite outcome relative risk (95% CI),"[1]; subgroup Hypertension−, 4942 patients",0.81 (0.70-0.93)
same,Primary composite outcome relative risk (95% CI),"[1]; subgroup MA+ (microalbuminuria), 1963 patients",0.71 (0.59-0.86)
same,Primary composite outcome relative risk (95% CI),"[1]; subgroup MA−, 7334 patients",0.82 (0.72-0.92)
same,Primary composite outcome relative risk (95% CI),"[1]; subgroup Male, 6817 patients",0.79 (0.70-0.89)
same,Primary composite outcome relative risk (95% CI),"[1]; subgroup PVD+, 4046 patients",0.74 (0.64-0.86)
same,Primary composite outcome relative risk (95% CI),"[1]; subgroup PVD−, 5251 patients",0.84 (0.72-0.98)
same,Primary composite outcome relative risk (95% CI),"[1]; subgroup Prior MI+, 4892 patients",0.79 (0.69-0.90)
same,"Primary outcome, events/patients, documented EF≧0.40","[1]; subgroup with documented EF≧0.40 (n=4676), Ramipril group",317/2339
same,Primary outcome relative risk conditioned on survival up to the prior year,[1]; third year,0.74
same,Primary outcome RR at 2 years,"[1]; vs placebo, at 2 years",0.81
same,Primary outcome RR within 1 year after randomization,"[1]; vs placebo, within 1 year",0.85
same,"Primary outcome RR, documented EF≧0.40",[2],0.73
C[C@H](CS)C(=O)N1CCC[C@H]1C(=O)O [captopril],Newly diagnosed diabetes,[3],reduction in newly diagnosed diabetes
